Source: patent publication US6586592B2, “Bis-arylsulfones” (Pharmacia & Upjohn Company, priority 2000, dated 2003)
Where a name gives a salt, the structure may show the parent alone.

Key:
[1] = target: T1, cloned human 5-HT6 receptor (Homo sapiens, UniProt P50406); experiment: 5-HT6 receptor binding assay ([3H]-LSD radioligand, SPA beads); conditions: membranes of Hela cells containing cloned human 5-HT6 receptor, IC50 converted to Ki by Cheng-Prusoff
T1 construct: membrane preparation
Description: 5-HT6 Receport Binding Assay
Growth of Cells and Membrane Preparation
Harvested intact cells are washed once in cold phosphate-buffered saline. The cells are pelleted and resuspended in 100 ml of cold 50 mM Tris, 5 mM EDTA and 5 mM EGTA, pH 7.4. Homogenization is with a Vir Tishear generator, 4 cycles for 30 seconds each at setting 50. The homogenized cells are centrifuged at 700 RPM (1000×g) for 10 minutes and the supernatant is removed. […] The rehomogenized cells are then centrifuged at 700 RPM (1000×g) for 10 minutes and the supernatant is removed. […] The membrane pellet is resupended in 50-8-ml of assay buffer containing HEPES 20 mM, MgCl2 10 mM, NaCl 150 mM, EDTA 1 mM, pH 7.4 and stored frozen in aliqouts at −70° C.
5-HT6 Receptor Binding Assay
The radioligand binding assay used [^3H]-lysergic acid diethylamide (LSD). The assay is carried out in Wallac 96-well sample plates by the addition of 11 μl of the test sample at the appropriate dilution (the assay employed 11 serial concentrations of samples run in duplicate), 11 μl of radioligand, and 178 μl of a washed mixture of WGA-coated SPA beads and membranes in binding buffer. The plates are shaken for about 5 minutes and then incubated at room temperature for 1 hour. The plates are then loaded into counting cassettes and counted in a Wallac MicroBeta Trilux scintillation counter.
Binding Constant (Ki) Determination
Eleven serial dilutions of test compounds are distributed to assay plates using the PE/Cetus Pro/Pette pipetter. These dilutions were, followed by radioligand and the bead-membrane mixture prepared as described above. The specifically bound cpm obtained are fit to a one-site binding model using GraphPad Prism ver. 2.0.

T1 sequence (P50406 whole entry): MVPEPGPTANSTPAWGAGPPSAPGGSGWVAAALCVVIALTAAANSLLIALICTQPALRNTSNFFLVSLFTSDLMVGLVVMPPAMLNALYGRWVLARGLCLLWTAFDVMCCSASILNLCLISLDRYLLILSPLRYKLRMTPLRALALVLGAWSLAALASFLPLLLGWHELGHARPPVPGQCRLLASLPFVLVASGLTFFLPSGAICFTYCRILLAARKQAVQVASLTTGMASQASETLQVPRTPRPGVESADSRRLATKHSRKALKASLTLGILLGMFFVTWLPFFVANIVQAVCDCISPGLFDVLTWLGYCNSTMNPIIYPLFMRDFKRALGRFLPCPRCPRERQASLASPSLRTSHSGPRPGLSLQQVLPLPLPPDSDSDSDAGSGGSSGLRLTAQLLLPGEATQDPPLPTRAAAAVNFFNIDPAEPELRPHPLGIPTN

| Structure (SMILES) | melting point | Ki [1] |
| --- | --- | --- |
| CNc1cc(N2CCCNCC2)ccc1S(=O)(=O)c1cccc(F)c1.Cl | 153 to 154 °C |  |
| Nc1cc(N2CCNCC2)ccc1S(=O)(=O)c1ccccc1 (as salt: salt) [Example 1, 2-(phenylsulfonyl)-5-(1-piperazinyl)phenylamine] | 165 to 166 °C |  |
| Nc1cc(N2CCNCC2)ccc1S(=O)(=O)c1ccccc1 [Example 1, 2-(phenylsulfonyl)-5-(1-piperazinyl)phenylamine] |  | 2.6 nM |
| Cl.Nc1cc(N2CCCNCC2)ccc1S(=O)(=O)c1cccc(F)c1 [Example 2, 5-(1,4-diazepan-1-yl)-2-[(3-fluorophenyl)sulfonyl]phenylamine] | 106 to 108 °C |  |
| Nc1cc(N2CCNCC2)ccc1S(=O)(=O)c1ccc(F)cc1 [Example 3, 2-[(4-fluorophenyl)sulfonyl]-5-(1-piperazinyl) Phenylamine] |  | 31 nM |
| CN1CCN(c2ccc(S(=O)(=O)c3ccc(F)cc3)c(N)c2)CC1.Cl [Example 4, 2-[(4-fluorophenyl)sulfonyl]-5-(4-methyl-1-piperazinyl) Phenylamine] | 85 to 89 °C | 32 nM |
| Cc1ccc(S(=O)(=O)c2ccc(N3CCNCC3)cc2N)cc1 [Example 5, 2-[(4-methylphenyl)sulfonyl]-5-(1-piperazinyl) Phenylamine] | 102 to 106 °C | 23 nM |
| Cc1ccc(S(=O)(=O)c2ccc(N3CCN(C)CC3)cc2N)cc1 [Example 6, 2-[(4-methylphenyl)sulfonyl]-5-(4-methyl-1-piperazinyl) Phenylamine] | 148 to 151 °C | 68 nM |
| CN1CCN(c2ccc(S(=O)(=O)c3ccccc3)c(N)c2)CC1.Cl [Example 7, 5-(4-methyl-1-piperazinyl)-2-(phenylsulfonyl) Phenylamine] | 90 to 93 °C | 3.6 nM |
| CN1CCN(c2ccc(S(=O)(=O)c3cccc(F)c3)c(N)c2)CC1.Cl [Example 8, 2-[(3-fluorophenyl)sulfonyl]-5-(4-methyl-1-piperazinyl) Phenylamine] | 89 to 92 °C | 5.2 nM |
| Nc1cc(N2CCCNCC2)ccc1S(=O)(=O)c1ccc(F)c(F)c1 [Example 9, 5-(1,4-diazepan-1-yl)-2-[(3,4-difluorophenyl)sulfonyl]phenylamine] |  | 79 nM |
| Nc1cc(N2CCCNCC2)ccc1S(=O)(=O)c1ccccc1 [Example 10, 5-(1,4-diazepan-1-yl)-2-(phenylsulfonyl) Phenylamine] |  | 11 nM |
| Nc1cc(N2CCCNCC2)ccc1S(=O)(=O)c1cc(F)cc(F)c1 [Example 11, 5-(1,4-diazepan-1-yl)-2-[(3,5-difluorophenyl)sulfonyl]phenylamine] |  | 11 nM |
| CCNc1cc(N2CCNCC2)ccc1S(=O)(=O)c1ccccc1.Cl [Example 13, N-ethyl-2-(phenylsulfonyl)-5-(1-piperazinyl) Phenylamine] | 121 to 123 °C |  |
